Measured values taken from ChEMBL document CHEMBL1821589, “Synthesis and structure-activity relationship of 1- and 2-substituted-1,2,3-triazole letrozole-based analogues as aromatase inhibitors” (Eur J Med Chem, 2011).
The source made the active and inactive calls. The calls are words filed in the database; no cut-off is given here.

Biological target: T1, Aromatase (Homo sapiens, UniProt P11511)
T1 sequence (P11511 whole entry): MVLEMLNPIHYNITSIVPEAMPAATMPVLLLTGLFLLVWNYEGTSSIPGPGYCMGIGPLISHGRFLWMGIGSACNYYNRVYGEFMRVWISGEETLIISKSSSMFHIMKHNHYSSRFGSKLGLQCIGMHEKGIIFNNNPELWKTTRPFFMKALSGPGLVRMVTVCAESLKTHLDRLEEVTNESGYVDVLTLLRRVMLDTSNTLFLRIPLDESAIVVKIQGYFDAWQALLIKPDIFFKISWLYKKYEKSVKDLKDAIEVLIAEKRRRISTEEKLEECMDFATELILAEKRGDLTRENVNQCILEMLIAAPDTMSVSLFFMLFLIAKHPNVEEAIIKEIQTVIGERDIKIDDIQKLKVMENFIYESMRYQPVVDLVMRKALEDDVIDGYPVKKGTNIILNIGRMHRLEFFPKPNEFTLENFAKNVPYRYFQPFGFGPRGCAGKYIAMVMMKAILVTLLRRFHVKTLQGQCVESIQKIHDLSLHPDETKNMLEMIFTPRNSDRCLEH
Assay: Inhibition of aromatase using 7-methoxy-4-trifluoromethyl coumarin as substrate after 30 mins by fluorescence-based colorimetric analysis
Conditions: not given

SMILES	IC50
COc1ccc(OCc2cn(Cc3ccc(C#N)cc3)nn2)cc1	2.34 µM
CCCCCCCCCCc1cn(C(c2ccc(C#N)cc2)c2ccc(C#N)cc2)nn1	16 µM
c1ccc(C(c2ccccc2)n2ccnn2)cc1	4.58 µM
N#Cc1ccc(OCc2cn(C(c3ccccc3)c3ccccc3)nn2)cc1	16.4 µM
Cc1ccc(OCc2cn(Cc3ccccc3)nn2)cc1	2.27 µM
CCCCCCCc1cn(C(c2ccc(C#N)cc2)c2ccc(C#N)cc2)nn1	10.6 µM
N#Cc1ccc(C(c2ccc(C#N)cc2)n2nccn2)cc1	80 µM
O=[N+]([O-])c1ccc(OCc2cn(Cc3ccccc3)nn2)cc1	2.78 µM
c1ccc(OCc2cn(C(c3ccccc3)c3ccccc3)nn2)cc1	31.3 µM
COc1ccc(OCc2cn(C(c3ccc(C#N)cc3)c3ccc(C#N)cc3)nn2)cc1	12.2 µM
CCCCCCCCCCc1cn(Cc2ccc(C#N)cc2)nn1	7.88 µM
N#Cc1ccc(Cn2cc(-c3ccccc3)nn2)cc1	3.38 µM
CCCCCCc1cn(C(c2ccccc2)c2ccccc2)nn1	14.8 µM
CCCc1cn(C(c2ccc(C#N)cc2)c2ccc(C#N)cc2)nn1	4.7 µM
N#Cc1ccc(OCc2cn(Cc3ccccc3)nn2)cc1	1.36 µM
CCCc1cn(C(c2ccccc2)c2ccccc2)nn1	11 µM
c1ccc(Cn2cc(COc3ccccc3)nn2)cc1	10.6 µM
N#Cc1ccc(C(c2ccc(C#N)cc2)n2cc(-c3ccccc3)nn2)cc1	10.3 µM
O=[N+]([O-])c1ccc(OCc2cn(C(c3ccccc3)c3ccccc3)nn2)cc1	11.6 µM
N#Cc1ccc(Cn2nccn2)cc1	12.2 µM
N#Cc1ccc(Cn2cc(COc3ccc([N+](=O)[O-])cc3)nn2)cc1	5.62 µM

SMILES	IC50
N#Cc1ccc(C(c2ccc(C#N)cc2)n2cc(COc3ccc(Cl)cc3)nn2)cc1	16.1 µM
N#Cc1ccc(C(c2ccc(C#N)cc2)n2cc(COc3ccccc3)nn2)cc1	11 µM
N#Cc1ccc(C(c2ccc(C#N)cc2)n2cc(COc3ccc([N+](=O)[O-])cc3)nn2)cc1	7.73 µM
CCCCCCc1cn(Cc2ccccc2)nn1	7.47 µM
CCCc1cn(Cc2ccccc2)nn1	12.6 µM
CCCCCCCCCCc1cn(C(c2ccccc2)c2ccccc2)nn1	13.5 µM
Cc1ccc(OCc2cn(Cc3ccc(C#N)cc3)nn2)cc1	4.17 µM
CCCCCCc1cn(C(c2ccc(C#N)cc2)c2ccc(C#N)cc2)nn1	5.07 µM
c1ccc(Cn2ccnn2)cc1	11.9 µM
Cc1ccc(OCc2cn(C(c3ccccc3)c3ccccc3)nn2)cc1	26.8 µM
CCCCCCCc1cn(C(c2ccccc2)c2ccccc2)nn1	19.4 µM
N#Cc1ccc(Cn2cc(COc3ccccc3)nn2)cc1	6.09 µM
N#Cc1ccc(C(c2ccc(C#N)cc2)n2cc(COc3ccc(-c4ccccc4)cc3)nn2)cc1	13.3 µM
c1ccc(Cn2cc(COc3ccc(-c4ccccc4)cc3)nn2)cc1	10.7 µM
c1ccc(C(c2ccccc2)n2nccn2)cc1	12 µM
c1ccc(Cn2nccn2)cc1	16.3 µM
CCCCCCc1cn(Cc2ccc(C#N)cc2)nn1	5.26 µM
c1ccc(Cn2cc(-c3ccccc3)nn2)cc1	9.77 µM
N#Cc1ccc(C(c2ccc(C#N)cc2)n2cc(C3CCCCC3)nn2)cc1	19.3 µM
CCCCCCCc1cn(Cc2ccc(C#N)cc2)nn1	3.07 µM
COc1ccc(OCc2cn(Cc3ccccc3)nn2)cc1	17.3 µM

SMILES	IC50
c1ccc(C(c2ccccc2)n2cc(C3CCCCC3)nn2)cc1	13.7 µM
Clc1ccc(OCc2cn(Cc3ccccc3)nn2)cc1	5.04 µM
N#Cc1ccc(Cn2cc(COc3ccc(Cl)cc3)nn2)cc1	3.91 µM
c1ccc(-c2ccc(OCc3cn(C(c4ccccc4)c4ccccc4)nn3)cc2)cc1	15.5 µM
c1ccc(Cn2cc(C3CCCCC3)nn2)cc1	7.98 µM
Clc1ccc(OCc2cn(C(c3ccccc3)c3ccccc3)nn2)cc1	13.4 µM
N#Cc1ccc(Cn2cc(COc3ccc(C#N)cc3)nn2)cc1	9.16 µM
N#Cc1ccc(OCc2cn(C(c3ccc(C#N)cc3)c3ccc(C#N)cc3)nn2)cc1	4.64 µM
Cc1ccc(OCc2cn(C(c3ccc(C#N)cc3)c3ccc(C#N)cc3)nn2)cc1	11 µM
COc1ccc(OCc2cn(C(c3ccccc3)c3ccccc3)nn2)cc1	15.2 µM
N#Cc1ccc(Cn2cc(COc3ccc(-c4ccccc4)cc3)nn2)cc1	11.6 µM
CCCc1cn(Cc2ccc(C#N)cc2)nn1	4.37 µM
N#Cc1ccc(Cn2cncn2)cc1	0.15 µM
CCCCCCCCCCc1cn(Cc2ccccc2)nn1	6.4 µM
c1ccc(Cn2ccnc2)cc1 [BENZYLIMIDAZOLE]	0.15 µM
c1ccc(-c2cn(C(c3ccccc3)c3ccccc3)nn2)cc1	12.9 µM
N#Cc1ccc(Cn2ccnn2)cc1	0.1 µM
c1ccc(Cn2cncn2)cc1	4.11 µM
c1ccc(C(c2ccccc2)n2cncn2)cc1	1.1 µM
N#Cc1ccc(Cn2cc(C3CCCCC3)nn2)cc1	10.7 µM
CCCCCCCc1cn(Cc2ccccc2)nn1	9.53 µM

Tested on: NCI-H295R
Assay: Antiproliferative activity against human NCI-H295R cells assessed as [3H]thymidine incorporation at 10 nM after 24 hrs by scintillation counting
Format: functional
Conditions: read-out: GI

SMILES	inhibition of growth at 0.01 µM
N#Cc1ccc(C(c2ccc(C#N)cc2)n2cncn2)cc1 [LETROZOLE]	10%

Tested on: NCI-H295R
Assay: Antiproliferative activity against human NCI-H295R cells at 10 nM after 24 hrs by Cell titer blue assay
Format: functional
Conditions: not given

SMILES	growth inhibition (GI)
N#Cc1ccc(OCc2cn(Cc3ccccc3)nn2)cc1	inactive

Same assay, conditions: read-out: GI

SMILES	inhibition of growth at 0.01 µM
N#Cc1ccc(OCc2cn(C(c3ccc(C#N)cc3)c3ccc(C#N)cc3)nn2)cc1	76%

Tested on: NCI-H295R
Assay: Antiproliferative activity against human NCI-H295R cells at 10 nM after 72 hrs by Cell titer blue assay
Format: functional
Conditions: not given

SMILES	growth inhibition (GI)
N#Cc1ccc(OCc2cn(Cc3ccccc3)nn2)cc1	inactive

Same assay, conditions: read-out: GI

SMILES	inhibition of growth at 0.01 µM
N#Cc1ccc(OCc2cn(C(c3ccc(C#N)cc3)c3ccc(C#N)cc3)nn2)cc1	99%

Tested on: NCI-H295R
Assay: Antiproliferative activity against human NCI-H295R cells assessed as cell viability at 10 nM after 24 to 72 hrs by Cell titer blue assay
Format: functional
Conditions: read-out: GI

SMILES	inhibition of growth at 0.01 µM
N#Cc1ccc(C(c2ccc(C#N)cc2)n2ccnc2)cc1	40%

Biological target: T1, Aromatase
Assay: Ratio of letrozole IC50 to compound IC50 for aromatase
Conditions: not given

SMILES	Ratio IC50
N#Cc1ccc(Cn2ccnn2)cc1	12.5
